Results reported in PubChem BioAssay AID258 (DTP/NCI, 2004).
Values joined by “and” are separate entries in the source; they are usually repeats but may differ in a detail not shown here. Equal values may be shown once. Inconclusive results and toxic doses are left out.

Tested on: CD2F1 mice, L1210 leukemia sc, survival T/C
Test: NCI In Vivo Anticancer Drug Screen. Data for tumor model L1210 Leukemia (subcutaneous) in CD2F1 (CDF1) mice
Details: endpoint: median survival time, higher = longer survival
Method: The antitumor activity of compounds was measured in mice bearing transplantable tumors. Survival or tumor size were measured and the results are expressed as the measurement made in the treated group (T) divided by the measurement made in the vehicle treated control group (C). The tumor model used in this assay is L1210 Leukemia (subcutaneous) in CD2F1 (CDF1) mice

What does the source list for `CN(Cc1cnc2nc(N)nc(N)c2n1)c1c(Cl)cc(C(=O)NC(CCC(=O)O)C(=O)O)cc1Cl` (stereo not drawn)?
T/C (dose: 5.83 mg/kg/injection, schedule: Q#A X Z (oral), vehicle: other): 163 % of control; T/C (dose: 8.1 mg/kg/injection, schedule: Q#A X Z (oral), vehicle: other): 220 % of control; T/C (dose: 8.1 mg/kg/injection, schedule: Q#A X Z (sc), vehicle: other): 655 % of control; T/C (dose: 9.72 mg/kg/injection, schedule: Q#A X Z (oral), vehicle: other): 204 % of control; T/C (dose: 9.72 mg/kg/injection, schedule: Q#A X Z (sc), vehicle: other): 345 % of control; T/C (dose: 13.5 mg/kg/injection, schedule: Q#A X Z (oral), vehicle: other): 230 % of control; T/C (dose: 13.5 mg/kg/injection, schedule: Q#A X Z (sc), vehicle: other): 730 % of control; T/C (dose: 16.2 mg/kg/injection, schedule: Q#A X Z (sc), vehicle: other): 322 % of control; T/C (dose: 22.5 mg/kg/injection, schedule: Q#A X Z (oral), vehicle: other): 190 % of control; T/C (dose: 22.5 mg/kg/injection, schedule: Q#A X Z (sc), vehicle: other): 690 % of control; T/C (dose: 25.0 mg/kg/injection, schedule: Q01DX Z (sc), vehicle: other): 500 % of control; T/C (dose: 27.0 mg/kg/injection, schedule: Q01DX Z (oral), vehicle: other): 186 % of control and 215 % of control; T/C (dose: 27.0 mg/kg/injection, schedule: Q01DX Z (sc), vehicle: other): 331 % of control and 565 % of control and 900 % of control; T/C (dose: 27.0 mg/kg/injection, schedule: Q#A X Z (sc), vehicle: other): 786 % of control; T/C (dose: 28.0 mg/kg/injection, schedule: Q01DX Z (oral), vehicle: other): 194 % of control; T/C (dose: 37.5 mg/kg/injection, schedule: Q#A X Z (oral), vehicle: other): 175 % of control; T/C (dose: 37.5 mg/kg/injection, schedule: Q#A X Z (sc), vehicle: other): 565 % of control; T/C (dose: 45.0 mg/kg/injection, schedule: Q01DX Z (oral), vehicle: other): 181 % of control and 210 % of control; T/C (dose: 45.0 mg/kg/injection, schedule: Q01DX Z (sc), vehicle: other): 363 % of control and 825 % of control; T/C (dose: 47.0 mg/kg/injection, schedule: Q01DX Z (oral), vehicle: other): 222 % of control; T/C (dose: 47.0 mg/kg/injection, schedule: Q01DX Z (sc), vehicle: other): 816 % of control; T/C (dose: 50.0 mg/kg/injection, schedule: Q01DX Z (sc), vehicle: other): 500 % of control; T/C (dose: 62.5 mg/kg/injection, schedule: Q#A X Z (sc), vehicle: other): 175 % of control; T/C (dose: 75.0 mg/kg/injection, schedule: Q01DX Z (oral), vehicle: other): 159 % of control and 190 % of control; T/C (dose: 75.0 mg/kg/injection, schedule: Q01DX Z (sc), vehicle: other): 231 % of control and 554 % of control and 800 % of control; T/C (dose: 75.0 mg/kg/injection, schedule: Q03DX Z (oral), vehicle: other): 100 % of control; T/C (dose: 75.0 mg/kg/injection, schedule: Q#A X Z (oral), vehicle: other): 122 % of control; T/C (dose: 78.0 mg/kg/injection, schedule: Q01DX Z (oral), vehicle: other): 188 % of control; T/C (dose: 78.0 mg/kg/injection, schedule: Q01DX Z (sc), vehicle: other): 272 % of control; T/C (dose: 108.0 mg/kg/injection, schedule: Q## X Z (oral), vehicle: other): 110 % of control; T/C (dose: 108.0 mg/kg/injection, schedule: Q## X Z (sc), vehicle: other): 115 % of control; T/C (dose: 125.0 mg/kg/injection, schedule: Q01DX Z (oral), vehicle: other): 172 % of control and 200 % of control; T/C (dose: 125.0 mg/kg/injection, schedule: Q01DX Z (sc), vehicle: other): 205 % of control; T/C (dose: 125.0 mg/kg/injection, schedule: Q03DX Z (oral), vehicle: other): 100 % of control; T/C (dose: 125.0 mg/kg/injection, schedule: Q03DX Z (sc), vehicle: other): 513 % of control; T/C (dose: 130.0 mg/kg/injection, schedule: Q01DX Z (oral), vehicle: other): 200 % of control; T/C (dose: 130.0 mg/kg/injection, schedule: Q01DX Z (sc), vehicle: other): 194 % of control; T/C (dose: 180.0 mg/kg/injection, schedule: Q## X Z (oral), vehicle: other): 115 % of control; T/C (dose: 180.0 mg/kg/injection, schedule: Q## X Z (sc), vehicle: other): 115 % of control; T/C (dose: 208.0 mg/kg/injection, schedule: Q03DX Z (oral), vehicle: other): 113 % of control; T/C (dose: 208.0 mg/kg/injection, schedule: Q03DX Z (sc), vehicle: other): 272 % of control; T/C (dose: 216.0 mg/kg/injection, schedule: Q01DX Z (oral), vehicle: other): 172 % of control; T/C (dose: 216.0 mg/kg/injection, schedule: Q01DX Z (sc), vehicle: other): 155 % of control; T/C (dose: 250.0 mg/kg/injection, schedule: Q## X Z (sc), vehicle: other): 500 % of control; T/C (dose: 300.0 mg/kg/injection, schedule: Q## X Z (oral), vehicle: other): 110 % of control; T/C (dose: 300.0 mg/kg/injection, schedule: Q## X Z (sc), vehicle: other): 120 % of control; T/C (dose: 347.0 mg/kg/injection, schedule: Q03DX Z (oral), vehicle: other): 109 % of control; T/C (dose: 347.0 mg/kg/injection, schedule: Q03DX Z (sc), vehicle: other): 195 % of control; T/C (dose: 360.0 mg/kg/injection, schedule: Q01DX Z (oral), vehicle: other): 166 % of control; T/C (dose: 500.0 mg/kg/injection, schedule: Q## X Z (oral), vehicle: other): 115 % of control; T/C (dose: 500.0 mg/kg/injection, schedule: Q## X Z (sc), vehicle: other): 370 % of control and 500 % of control; T/C (dose: 577.0 mg/kg/injection, schedule: Q03DX Z (oral), vehicle: other): 150 % of control; T/C (dose: 577.0 mg/kg/injection, schedule: Q03DX Z (sc), vehicle: other): 209 % of control; T/C (dose: 833.0 mg/kg/injection, schedule: Q## X Z (oral), vehicle: other): 155 % of control; T/C (dose: 833.0 mg/kg/injection, schedule: Q## X Z (sc), vehicle: other): 360 % of control; T/C (dose: 961.0 mg/kg/injection, schedule: Q03DX Z (oral), vehicle: other): 122 % of control; T/C (dose: 961.0 mg/kg/injection, schedule: Q03DX Z (sc), vehicle: other): 172 % of control

With `CS(=O)(=O)OCCCCOS(C)(=O)=O` as the compound, how does the T/C (dose: 8.4 mg/kg/injection, schedule: Q01DX Z (sc), vehicle: methylcellulose (MC)) read?
Its T/C is 100 % of control.

And the T/C (dose: 14.0 mg/kg/injection, schedule: Q01DX Z (sc), vehicle: methylcellulose (MC))?
The T/C was 100 % of control.

What about the T/C (dose: 23.0 mg/kg/injection, schedule: Q01DX Z (sc), vehicle: methylcellulose (MC)) of the same compound?
Its T/C is 100 % of control.

And the T/C (dose: 39.0 mg/kg/injection, schedule: Q01DX Z (sc), vehicle: methylcellulose (MC))?
Its T/C is 100 % of control.

And the T/C (dose: 65.0 mg/kg/injection, schedule: Q01DX Z (sc), vehicle: methylcellulose (MC))?
The T/C was 100 % of control.

And the T/C (dose: 108.0 mg/kg/injection, schedule: Q01DX Z (sc), vehicle: methylcellulose (MC))?
Its T/C is 100 % of control.
